These results are taken from a melting point compilation (Tetko et al.; mined from patent text by program, amines drawn as free bases though some values may be those of a salt).

In general, melting point refers to the temperature of the solid-liquid transition.

Structures are written as SMILES.

For `CC1NN2C=CC=NC2C1C#N` (stereo not drawn), the melting point fell in the range of 170 to 172 °C.
With `Cc1cc(OC(C)(C)C(=O)O)c(C)c(Br)c1C` the figure was 151 to 153 °C; with `CN(C)CCSCc1c(CCN(C)C)[nH]c2ccccc12`, 52 to 54 °C; with `O=C1CCCC(=O)N1c1cc(Cl)cc(Cl)c1`, 172 to 174 °C.
The value for `CC(C)n1nc(-c2ncc(N)nc2-c2ccccc2)ccc1=O` was 204 to 206 °C.
With `CS(=O)(=O)c1ccc(-n2cc(-c3cccc(Cl)c3)nc2-c2ccc(Cl)cc2)cc1` the figure was 156 to 159 °C; with `CC1(C)C(=O)N(c2ccc(N)c(C(F)(F)F)c2)C(=O)N1CCCCCN1C(=O)N(c2ccc(N)c(C(F)(F)F)c2)C(=O)C1(C)C`, 108 to 109 °C.
`Fc1ccccc1C1=NCc2cncn2-c2ccc(Cl)cc21` yielded a melting point of 148 to 151 °C.
With `COc1ccc(COC(=O)C(=CNc2ncccc2OC(=S)N(C)C)C(=O)OCc2ccc(OC)cc2)cc1` the figure was 117 to 118 °C; with `COc1ccc(CCOc2cccc(-c3cccc(C(=O)NCCN4CCCC4)c3)n2)cc1OC`, 126 to 127 °C; with `Cc1ccc(S(=O)(=O)C[N+](=O)[O-])s1`, 73 to 74 °C.
The value for `Cc1nn(C)c(C)c1-c1ccc(OC2SCC(O)C(O)C2O)cn1` (stereo not drawn) was 132 °C; that for `CC(=O)NC1CCCCc2sccc21` (stereo not drawn) was 179 to 180 °C.
The value for `NC(=O)NN=Cc1ccc(OCc2ccccc2F)cc1` was 211 to 212 °C; that for `O=C1Nc2cccc(Cl)c2C12COc1cc3c(cc12)OCO3` (stereo not drawn) was 175 to 185 °C.
With `Oc1ccc2c(c1)CCN(c1ccc(Cl)cc1)C2`, the melting point is 122 to 123 °C.
The value for `O=C(O)CCCCCOc1ccc([N+](=O)[O-])cc1` was 104 to 107 °C; that for `COc1cccc(Cl)c1C(O)C(N)=O` (stereo not drawn) was 116 to 118 °C.
The value for `COC(=O)c1cc(Cl)c2cccc(OC)c2n1` was 139 to 141 °C.
`COc1cc2c(cc1C(C)(C)C)CCC2Cc1c[nH]cn1` (stereo not drawn): the melting point was 174 to 184 °C.
The value for `Cc1cccc2c1C(=O)N1CCC[C@H]1c1c(C(=O)OC(C)(C)C)ncn1-2` was 192 to 194 °C.
With `CC1(C)C2CC[C@]1(C)C(=O)C(C(=O)Nc1ccc([N+](=O)[O-])cc1)C2=O` (stereo partly drawn) the figure was 168 to 170 °C; with `CCOc1ccc2c(c1)n(C1CCCCC1)c(=O)n2Cc1ccc(S(=O)(=O)NC(C)(C)CC)cc1`, 165 °C; with `CCCc1c(OCC(O)COc2ccc3c(=O)cc(CCC(=O)O)oc3c2CCC)ccc(C(C)=O)c1O` (stereo not drawn), 79 to 80 °C.
On to `CC(C)(O)c1ccc(C(Cc2ccc(F)cc2)C(=O)Nc2nc3ccccc3o2)cc1` (stereo not drawn), for which the melting point fell in the range of 87 to 90 °C.
With `CCOC(CCCNS(=O)(=O)c1ccccc1)OCC` the figure was 109 °C.
As to `CC[C@H](C)[C@H](OCc1ccccc1)[C@H]1[C@H]([N+](=O)[O-])[C@H](c2ccccc2)N[C@@H]1C(=O)NCC(=O)O`, the melting point fell in the range of 156 to 157 °C.
In the case of `CN(C(=O)c1cccc(S(=O)(=O)N(C)c2ccc(Br)cc2)c1)c1ccc(Br)cc1F`, the melting point fell in the range of 136 to 137 °C.
As to `CCCCn1c(=O)c2c(NC)n[nH]c2n(Cc2ccc(Cl)cc2)c1=O`, the melting point was 292 to 294 °C.
The value for `CC(=NOCCCOc1ccc(CC(=O)O)cc1)c1ccc(C(C)(C)C)cc1` was 98.7 to 99.7 °C; that for `CCOC(=O)c1nc2n(c(=O)c1O)CCOC2` was 172 to 174 °C.
As for `Cc1cc(OS(=O)(=O)c2c(Cl)cccc2Cl)cc2c(C3CCN(C)CC3)c[nH]c12`, the melting point worked out at 179 °C.
With `CC1CC(=O)NN=C1c1ccc(NC(=O)CCBr)cc1` (stereo not drawn) the figure was 215 to 217 °C; with `CCCCCCCCc1ccc(N=Nc2ccc(OC(=O)CCOCCCCCCC)cc2)cc1`, 42.1 °C; with `CN(C)CCCNC(=O)[C@@H]1CCCN1S(=O)(=O)c1ccc(Cl)c(COc2cccc3c2NC(C)(C)C=C3n2cncn2)c1Cl`, 154 °C.
The value for `O=S(=O)(Nc1cccc2cc(-c3nccs3)[nH]c12)c1cccs1` was 164 to 165 °C.
The value for `Nc1ccc([C@@H](O)CNC[C@H]2CCc3cc(NS(=O)(=O)c4ccc(-n5nnn(CCCC6CCCCC6)c5=O)cc4)ccc3O2)cn1` was 94 to 95 °C; that for `Nc1ccc2nc(-c3ccccc3)oc2c1` was 212 to 214 °C.
Molecule `O=C(NCc1cc(Cl)cc(Cl)c1)c1ccnc(NC(=O)c2ccccc2)c1` gave a melting point of 248 to 251 °C.
With `CCN(CC)C(=O)COC(=O)C(C)c1ccc2cc(OC)ccc2c1` (stereo not drawn) the figure was 89 to 89.5 °C.
With `CCOC(=O)c1cn(-c2cccnc2)nc1Br` the figure was 94 to 95 °C; with `COC(=O)C(C)(C)CCCOc1cc(C)c(OCc2ccccc2)cc1C`, 75.5 to 76.5 °C; with `BrC(Br)c1nc(C(Br)Br)nc(C(Br)Br)n1`, 130 to 131 °C.
With `COC(=O)C(Br)c1ccc2c(c1)OCO2` (stereo not drawn) the figure was 39 to 41 °C.
Molecule `O=C(CN1C(=O)c2ccccc2C1=O)N1CCN(C(=O)c2cc(C(F)(F)F)cc(C(F)(F)F)c2)[C@H](Cc2c[nH]c3ccccc23)C1` displayed a melting point of more than 220 °C.
`CC(=O)Nc1nc(CCc2ccc(NC(=O)OC(C)(C)C)cc2)c(C(=O)O)s1` showed a melting point of 237 to 238 °C.
With `COc1cc(I)c(I)cc1OC` the figure was 134 to 136 °C; with `O=C(NCc1ncc(C(F)(F)F)cc1Cl)c1ccccc1C(F)(F)F`, 127 to 130 °C; with `CSc1c(C#N)cnn1-c1ccc(C(F)(F)F)cc1Cl`, 59 to 62 °C.
The value for `N#Cc1cc(N)ccc1Oc1ccccc1` was 89 °C; that for `CC(CO)n1cnc2c(I)ncnc21` (stereo not drawn) was 193 to 194 °C.
The molecule `O=C(COc1ccccc1)NC1CNC1=O` (stereo not drawn) gave a melting point of 153 to 155 °C.
The value for `CC(C)(C)OC(=O)NC1N=C(c2ccccc2F)c2ccccc2N(CCO)C1=O` (racemic) was 200 °C; that for `COc1ccc(-c2cc(-c3ccc(F)cc3)c3c(=O)n(C)c(=O)n(C)c3n2)cc1` was 240 to 243 °C.
The value for `Cn1ncnc1COc1nn2c(-c3cccc(F)c3)nncc2c1-c1ccccc1` was 198 °C.
With `COC(=O)CCc1cc2cc(Cl)ccc2n1S(=O)(=O)c1cccc(OC)c1` the figure was 106 to 109 °C.
Molecule `CCN(c1cccc(-c2ccnc3c([N+](=O)[O-])cnn23)c1)S(=O)(=O)c1ccc(OC)cc1` showed a melting point of 209 to 211 °C.
For the molecule `O=C(O)Cc1cccc(Cc2nc3c(F)c(F)ccc3s2)c1`, the melting point was 154 to 155 °C.
The value for `COc1cc(OC)c(C(=O)c2cc(Cl)ccc2NC(C)=O)c(OC)c1` was 159 to 160 °C; that for `O=C(O)CCC(=O)N[C@@H]1CN2C(=O)N(c3cc(Cl)nc(Cl)c3)C(=O)[C@@]2(Cc2ccc(OC(F)(F)F)cc2)C1` was 102 °C.
Regarding `O=C1NN=C(c2ccc(NC(=O)C(F)(F)F)cc2)C2CC12` (stereo not drawn), the melting point fell in the range of 242 to 243 °C.
With `OCCOCCOCCN1CCC(=C2c3ccccc3CC(O)c3sccc32)CC1` (stereo not drawn) the figure was 110 to 113 °C; with `COc1cc(N2CCOCC2)ccc1C(=O)O`, 158 to 160 °C; with `CC(=O)NC[C@H]1CN(c2ccc3c(c2)CS(=O)(=O)CC3)C(=O)O1`, 177 to 179 °C.
`CC(C)(C)c1cc(Cn2cncn2)cc(C(C)(C)C)c1O` displayed a melting point of less than 30 °C.
Consider `COc1cc(N=C2SC(=CC(=O)O)C(=O)N2c2cc(OC)c(OC)c(OC)c2)cc(OC)c1OC`, for which the melting point fell in the range of 250 to 252 °C.
`CC(C)c1cc(Oc2ccc(Cl)cc2)nc(C(C)C)c1N`: the melting point was in the range of 86 to 88 °C.
With `CC(C)(CNC(=O)[C@H](O)[C@H](O)COC(=O)Cc1ccccc1Nc1c(Cl)cccc1Cl)SN=O` the figure was 57 to 59 °C.
With `O=C(O)Cc1ccc2c(c1)C(=O)c1cc(F)ccc1CO2` the figure was 173 to 175 °C; with `CC(=O)OC1CCC2(C)C(=CCC3C2CCC2(C)C(C(C)=O)=CCC32)C1` (stereo not drawn), 169 to 172 °C.
Turning to `CN1C2C=C(c3c[nH]c4ccc([N+](=O)[O-])cc34)CC1CC2` (stereo not drawn), the melting point lay within 234 to 236 °C.
`O=C(O)CCc1oc2cc(O)ccc2c(=O)c1C(=O)O`: the melting point lay in the range of 218 to 219 °C.
With `CCOC(=O)NC(C)CCC1(O)c2ccccc2CCc2c(C)cccc21` (stereo not drawn) the figure was 132 to 134 °C; with `CCCCCCCCCCCCS(=O)(=O)c1cc(C(=O)O)c([N+](=O)[O-])c(S(=O)(=O)CCCCCCCCCCCC)c1`, 153 to 154 °C; with `CN(C(=O)C(F)(F)F)N1CCc2ccccc2C(Oc2ccc(C(F)(F)F)cc2)C1` (stereo not drawn), 210 to 212 °C.
The value for `O=C(CCCOc1ccc2nc3[nH]c(=O)[nH]c3cc2c1)NC1CCCC1` was more than 320 °C.
As to `CCOC(=O)c1cn(-c2c(OCc3ccccc3)cccc2OCc2ccccc2)cn1`, the melting point was 125 to 126 °C.
With `Cc1ccc(C(=S)c2ccccc2C(=O)O)cc1` the figure was 151 to 155 °C; with `O=C(O)C[C@H](NC(=O)CNC(=O)c1csc(NC(=O)NCc2ccccn2)n1)C(=O)NCc1ccccn1`, 164 °C.
The value for `CCOC(=O)N1CCC(c2cc3cc(OC)cc(Br)c3o2)CC1` was 85 °C.
With `COc1cccc2c(Nc3cccc(Br)c3)c(C#N)cnc12` the figure was 210 to 212 °C.
Take `CCOC(=O)c1cccc(N(CC(=O)OC(C)(C)C)C(=O)CNC(=O)Nc2cccc(C)c2)c1`: the melting point was found to be 71 °C.
The value for `Cc1cccc(-n2nc(C(F)(F)F)cc2-c2ccc(S(C)(=O)=O)c(F)c2)c1` was 129 to 130 °C; that for `COC(=O)c1cc(-c2nnnn2C)c(C(=O)OC)s1` was 149 to 151 °C; that for `CCCc1nc2c(C(F)(F)F)cccc2c(O)c1C(=O)OCC` was 98 °C.
For `O=C(O)c1ccc(NCc2cc(Cl)c(Cl)s2)cc1`, the melting point was 225 to 227 °C.
With `N#CC=CC=CC(=O)C(F)(F)F` the figure was 123 to 126 °C; with `CCCCCCCCCCCCC(C(=O)O)S(=O)(=O)c1ccc(OC)cc1` (stereo not drawn), 82 °C.
